The values below come from US9682940B2, “Indazole derivatives useful as CB-1 inverse agonists” (Janssen Pharmaceutica NV, priority 2015, dated 2017).

The target of data set [1] is Human CB1R (Cannabanoid receptor 1) (Homo sapiens (Human), UniProt P21554). The data set is described as follows: CB-1 in vitro cAMP (HTRF) assay in HEK-293 cells. The format is cell-based. The settings on record: HEK-293 cells stably transfected with human CB1R, 250 nM Forskolin, mean where tested more than once, read-out: CB-1 (HEK_cAMP) EC50. A digest of the protocol: (§1)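 HEK-293 cells stably expressing human CB1 or CB2 plated overnight, then tested in HBSS/5 mM HEPES/0.1% BSA with 0.5 mM IBMX and forskolin (1.5 μM working dilution). Intracellular cAMP quantified by competitive HTRF immunoassay (d2-cAMP, cryptate anti-cAMP) against a cAMP standard curve; compounds as 1/3 serial dilutions from 10 mM DMSO stocks.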
Human CB1R (Cannabanoid receptor 1), sequence (P21554 whole entry): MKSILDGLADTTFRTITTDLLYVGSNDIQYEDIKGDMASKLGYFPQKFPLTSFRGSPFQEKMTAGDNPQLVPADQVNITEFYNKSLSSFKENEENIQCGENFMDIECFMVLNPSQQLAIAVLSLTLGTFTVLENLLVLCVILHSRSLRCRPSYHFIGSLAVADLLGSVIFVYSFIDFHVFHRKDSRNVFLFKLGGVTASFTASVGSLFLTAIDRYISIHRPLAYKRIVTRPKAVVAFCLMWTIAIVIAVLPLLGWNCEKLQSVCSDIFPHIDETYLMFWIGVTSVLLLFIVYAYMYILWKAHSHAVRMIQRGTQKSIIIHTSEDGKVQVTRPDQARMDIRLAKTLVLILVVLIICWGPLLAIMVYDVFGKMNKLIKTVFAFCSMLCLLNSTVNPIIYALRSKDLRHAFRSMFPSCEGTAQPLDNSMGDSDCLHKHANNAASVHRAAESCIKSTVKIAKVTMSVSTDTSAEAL

Another data set is described as follows: Mouse Fast PK/BBB. Format: in vivo, Male C57bl/6j mice. Particulars: oral. As to the method: Male C57bl/6j mice were ordered from Charles River at 22-25 g and housed 3 per cage. They were fed standard chow (Purina 5001).
Male C57bl/6j mice were dosed with test compounds at 20 mg/kg or 30 mg/kg. Plasma was collected via retro-orbital bleeding at 1 hr and 4 hrs after dosing. Whole brain without cerebellum was collected at 4 hrs after dosing. Wet brain weight was recorded before freezing. Brains were homogenized in saline and sent for analysis for determination of concentration of test compound.

The target of data set [2] is Human CB2R (Cannabanoid receptor 2) (Homo sapiens (Human), UniProt P34972). The data set is described as follows: CB-2 in vitro cAMP (HTRF) assay in HEK-293 cells. Format: cell-based. Particulars: HEK-293 cells stably transfected with human CB2R, 250 nM Forskolin, mean where tested more than once, read-out: CB-2 (HEK_cAMP) EC50. The method in brief: as §1
Human CB2R (Cannabanoid receptor 2), sequence (P34972 whole entry): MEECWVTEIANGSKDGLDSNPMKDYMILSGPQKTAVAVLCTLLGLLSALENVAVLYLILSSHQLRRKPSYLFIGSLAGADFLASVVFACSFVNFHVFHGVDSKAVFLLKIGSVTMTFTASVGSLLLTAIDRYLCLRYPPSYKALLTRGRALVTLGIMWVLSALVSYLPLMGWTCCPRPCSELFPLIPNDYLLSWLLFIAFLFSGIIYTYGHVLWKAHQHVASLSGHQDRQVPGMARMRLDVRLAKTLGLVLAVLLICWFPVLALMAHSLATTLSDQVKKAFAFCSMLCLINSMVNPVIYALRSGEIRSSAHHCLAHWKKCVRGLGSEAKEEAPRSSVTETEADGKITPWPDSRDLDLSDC

As to `O=S(=O)(N1CCC(c2n[nH]c3ccc(C(c4ccc(Cl)cc4)c4ccc(Cl)cc4)cc23)CC1)C(F)(F)F` [Compound 35], the values for the EC50 in data set [1] and in data set [2] were 5 nM and above 10000 nM, respectively. Moreover, the “BRAIN Mean Conc. (ng/mL) ± Std. Dev (ng/mL)” value in the data set “Mouse Fast PK/BBB” (Dose 20 mg/kg, Time 1 hr) is recorded as “BLOQ ± NA”; in the data set “Mouse Fast PK/BBB” (Dose 20 mg/kg, Time 4 hr), “BLOQ ± NA”. In addition, the “PLASMA Mean Conc. (ng/mL) ± Std. Dev” value is 3613 ± 253 ng/mL in the data set “Mouse Fast PK/BBB” (Dose 20 mg/kg, Time 1 hr) and 611 ± 125 ng/mL in “Mouse Fast PK/BBB” (Dose 20 mg/kg, Time 4 hr).

On to `COc1cc(S(=O)(=O)N2CCC(c3c4cc(C(c5ccc(Cl)cc5)c5ccc(Cl)cc5)ccc4nn3C3CC3)CC2)ccc1C(=O)O` [Compound 157, 4-(4-(5-(bis(4-chlorophenyl)methyl)-2-cyclopropyl-2H-indazol-3-yl)piperidin-1-ylsulfonyl)-2-methoxybenzoic acid], for which the EC50 in data set [1] was determined as 2 nM; in data set [2], 4030 nM. The concentration at 1 hr in “Mouse Fast PK/BBB” (male, C57bl/6j, plasma, Dose 30 mg/kg, Time 1 hr, read-out: PLASMA Mean Conc. (ng/mL) ± Std. Dev) was determined as 241 ± 117 ng/mL. The concentration at 4 hr in the data set “Mouse Fast PK/BBB” (male, C57bl/6j, plasma, Dose 30 mg/kg, Time 4 hr, read-out: PLASMA Mean Conc. (ng/mL) ± Std. Dev) was 13 ± 1.7 ng/mL. The “BRAIN Mean Conc. (ng/mL) ± Std. Dev (ng/mL)” value in the data set “Mouse Fast PK/BBB” (Dose 30 mg/kg, Time 1 hr) was “BLOQ ± NA”; in the data set “Mouse Fast PK/BBB” (Dose 30 mg/kg, Time 4 hr) it was “BLOQ ± NA”.

Regarding `NC(=O)c1cccc(CN2CCC(c3nn(C4CC4)c4ccc(C(c5ccc(Cl)cc5)c5ccc(Cl)cc5)cc34)CC2)c1` [Compound 206], the results for the EC50 in data set [1] and in data set [2] were 8 nM and above 10000 nM, respectively. Also, the “BRAIN Mean Conc. (ng/mL) ± Std. Dev” value in the data set “Mouse Fast PK/BBB” (Dose 30 mg/kg, Time 1 hr) stood at 21.5 ng/mL; in “Mouse Fast PK/BBB” (Dose 30 mg/kg, Time 4 hr) it was 30.6 ± 6.5 ng/mL. Moreover, the “PLASMA Mean Conc. (ng/mL) ± Std. Dev” value is 333.5 ± 70.5 ng/mL in the data set “Mouse Fast PK/BBB” (Dose 30 mg/kg, Time 1 hr) and 532.8 ± 58.9 ng/mL in the data set “Mouse Fast PK/BBB” (Dose 30 mg/kg, Time 4 hr).

Take `Cc1ccc(C(c2ccc(Cl)cc2)c2ccc3c(c2)c(C2CCN(Cc4cccc(C(=O)O)c4)CC2)nn3C2CC2)cc1` (stereo not drawn) [Compound 247]: the EC50 in data set [1] is 20 nM; in data set [2], above 10000 nM.

With `O=C(O)c1cccc(CN2CCC(c3nn(C4CC4)c4ccc(C(c5ccc(Cl)cc5)c5ccc(C(F)(F)F)cc5)cc34)CC2)c1` (stereo not drawn) [Compound 248], the half-maximal effective concentration (EC50) in data set [1] was 41 nM; in data set [2], above 10000 nM.

`NC(=O)c1ccc(C(c2ccc(Cl)cc2)c2ccc3nn(C4CC4)c(C4CCN(S(=O)(=O)C(F)(F)F)CC4)c3c2)cc1` (stereo not drawn) [Compound 249, 4-((4-chlorophenyl)(2-cyclopropyl-3-(1-(trifluoromethylsulfonyl)piperidin-4-yl)-2H-indazol-5-yl)methyl)benzamide]: the EC50 in data set [1] is 15 nM; in data set [2], above 10000 nM.

As to `O=C(O)c1ccc(CN2CCC(c3nn(C4CC4)c4ccc(C(c5ccc(Cl)cc5)c5ccc(Cl)cc5)cc34)CC2)o1` [Compound 250], the EC50 in data set [1] is 43 nM; in data set [2] it was above 10000 nM.

In the case of `O=C(O)c1cccc(CN2CCC(c3c4cc(C(c5ccc(Cl)cc5)c5ccc(Cl)cc5)ccc4nn3C3CC3)CC2)n1` [Compound 251, 6-((4-(5-(bis(4-chlorophenyl)methyl)-2-cyclopropyl-2H-indazol-3-yl)piperidin-1-yl)methyl)picolinic acid], the results for the EC50 in data set [1] and in data set [2] were 14 nM and above 10000 nM, respectively.

`O=C(O)c1ccc(CN2CCC(c3c4cc(C(c5ccc(Cl)cc5)c5ccc(Cl)cc5)ccc4nn3C3CC3)CC2)nc1` [Compound 252]: the values for the EC50 in data set [1] and in data set [2] were 77 nM and above 10000 nM, respectively.

Take `NC(=O)c1ccc(C(c2ccc(Cl)cc2)c2ccc3[nH]nc(C4CCN(S(=O)(=O)C(F)(F)F)CC4)c3c2)cn1` (stereo not drawn) [Compound 253]: the EC50 in data set [1] amounted to 11 nM; in data set [2] it was 6930 nM.

For the molecule `O=C(O)c1ccc(CN2CCC(c3nn(C4CC4)c4ccc(C(c5ccc(Cl)cc5)c5ccc(Cl)cc5)cc34)CC2)s1` [Compound 254], the EC50 is 16 nM in data set [1] and above 10000 nM in data set [2].

With `O=C(O)c1cncc(CN2CCC(c3c4cc(C(c5ccc(Cl)cc5)c5ccc(Cl)cc5)ccc4nn3C3CC3)CC2)c1` [Compound 255, 5-((4-(5-(bis(4-chlorophenyl)methyl)-2-cyclopropyl-2H-indazol-3-yl)piperidin-1-yl)methyl)nicotinic acid], the values for the EC50 in data set [1] and in data set [2] were 34 nM and above 10000 nM, respectively.

In the case of `O=C(O)c1ccc(CN2CCC(c3c4cc(C(c5ccc(Cl)cc5)c5ccc(Cl)cc5)ccc4nn3C3CC3)CC2)cc1` [Compound 256, 4-((4-(5-(bis(4-chlorophenyl)methyl)-2-cyclopropyl-2H-indazol-3-yl)piperidin-1-yl)methyl)benzoic acid], the EC50 was 30 nM in data set [1] and above 10000 nM in data set [2].

For the molecule `O=C(O)c1cccc(CN2CCC(c3c4cc(C(c5ccc(Cl)cc5)c5ccc(Cl)cc5)ccc4nn3C3CC3)CC2)c1` [Compound 257, 3-((4-(5-(bis(4-chlorophenyl)methyl)-2-cyclopropyl-2H-indazol-3-yl)piperidin-1-yl)methyl)benzoic acid], the EC50 in data set [1] was 13 nM; in data set [2], above 5000 nM.

`COC(=O)c1ccc(CN2CCC(c3n[nH]c4ccc(C(c5ccc(Cl)cc5)c5ccc(Cl)cc5)cc34)CC2)cc1` [Compound 258]: the EC50 in data set [1] was 428 nM; in data set [2] it was above 42000 nM.

Turning to `COC(=O)c1cccc(CN2CCC(c3n[nH]c4ccc(C(c5ccc(Cl)cc5)c5ccc(Cl)cc5)cc34)CC2)c1` [Compound 259], the 50% effective concentration (EC50) in data set [1] is 374 nM; in data set [2], above 42000 nM.

As for `COC(=O)c1ccc(S(=O)(=O)N2CCC(c3n[nH]c4ccc(C(c5ccc(Cl)cc5)c5ccc(Cl)cc5)cc34)CC2)o1` [Compound 260], the EC50 in data set [1] is 25 nM; in data set [2], above 42000 nM.

Regarding `O=C(O)c1ccc(S(=O)(=O)N2CCC(c3n[nH]c4ccc(C(c5ccc(Cl)cc5)c5ccc(Cl)cc5)cc34)CC2)s1` [Compound 261], the EC50 in data set [1] came out at 271 nM; in data set [2], 6820 nM.

In the case of `O=C(NCc1ccccc1)N1CCC(c2n[nH]c3ccc(C(c4ccc(Cl)cc4)c4ccc(Cl)cc4)cc23)CC1` [Compound 262], the EC50 in data set [1] was 672 nM; in data set [2], above 10000 nM.

For `O=C(NC1CCCC1)N1CCC(c2n[nH]c3ccc(C(c4ccc(Cl)cc4)c4ccc(Cl)cc4)cc23)CC1` [Compound 263], the results for the EC50 in data set [1] and in data set [2] were 234 nM and 2330 nM, respectively.

As to `CCNC(=O)N1CCC(c2n[nH]c3ccc(C(c4ccc(Cl)cc4)c4ccc(Cl)cc4)cc23)CC1` [Compound 264], the values for the EC50 in data set [1] and in data set [2] were 199 nM and 4270 nM, respectively.

With `O=C(OCc1ccccc1)N1CCC(c2n[nH]c3ccc(C(c4ccc(Cl)cc4)c4ccc(Cl)cc4)cc23)CC1` [Compound 265], the EC50 was 208 nM in data set [1] and above 10000 nM in data set [2].

Regarding `O=C(Oc1ccccc1)N1CCC(c2n[nH]c3ccc(C(c4ccc(Cl)cc4)c4ccc(Cl)cc4)cc23)CC1` [Compound 267], the EC50 is 79 nM in data set [1] and above 2000 nM in data set [2].

`CCOC(=O)N1CCC(c2n[nH]c3ccc(C(c4ccc(Cl)cc4)c4ccc(Cl)cc4)cc23)CC1` [Compound 268]: the EC50 in data set [1] was 32 nM; in data set [2], 12400 nM.

With `O=C(O)c1ccc(S(=O)(=O)N2CCC(c3n[nH]c4ccc(C(c5ccc(Cl)cc5)c5ccc(Cl)cc5)cc34)C2)cc1` (stereo not drawn) [Compound 269], the EC50 in data set [1] was 590 nM; in data set [2] it was above 10000 nM.

Regarding `O=C(O)c1ccc(S(=O)(=O)N2CCC(c3n[nH]c4ccc(C(c5ccc(Cl)cc5)c5ccc(Cl)cc5)cc34)C2)o1` (stereo not drawn) [Compound 270], the concentration giving a half-maximal response (EC50) in data set [1] was 9600 nM; in data set [2], above 10000 nM.

`O=C(OC1CCCC1)N1CCC(c2n[nH]c3ccc(C(c4ccc(Cl)cc4)c4ccc(Cl)cc4)cc23)CC1` [Compound 271]: the results for the EC50 in data set [1] and in data set [2] were 40 nM and above 10000 nM, respectively.

With `O=C(O)c1cccc(CN2CCC(c3n[nH]c4ccc(C(c5ccc(Cl)cc5)c5ccc(Cl)cc5)cc34)C2)c1` (stereo not drawn) [Compound 272], the EC50 in data set [1] was 333 nM; in data set [2] it was above 10000 nM.

For the molecule `O=C(O)c1cccc(S(=O)(=O)N2CCC(c3n[nH]c4ccc(C(c5ccc(Cl)cc5)c5ccc(Cl)cc5)cc34)C2)c1` (stereo not drawn) [Compound 273], the EC50 is 6800 nM in data set [1] and above 10000 nM in data set [2].

On to `O=S(=O)(N1CCC(c2nn(C3CC3)c3ccc(C(c4ccc(Cl)cc4)c4ccc(Cl)cc4)cc23)CC1)C(F)(F)F` [Compound 275], for which the EC50 is 24 nM in data set [1] and above 10000 nM in data set [2].

On to `CC(c1cccc(C(=O)O)c1)N1CCC(c2n[nH]c3ccc(C(c4ccc(Cl)cc4)c4ccc(Cl)cc4)cc23)C1` (stereo not drawn) [Compound 277], for which the concentration for a half-maximal effect (EC50) in data set [1] stood at 1550 nM; in data set [2], 7000 nM.

As to `O=S(=O)(N1CCC(c2n[nH]c3ccc(C(c4ccc(Cl)cc4)C4CCCC4)cc23)CC1)C(F)(F)F` (stereo not drawn) [Compound 279], the 50% effective concentration (EC50) in data set [1] is 785 nM; in data set [2], above 42000 nM.

As to `O=S(=O)(N1CCC(c2n[nH]c3ccc(C(c4ccc(Cl)cc4)C4CCCCC4)cc23)CC1)C(F)(F)F` (stereo not drawn) [Compound 280], the EC50 in data set [1] was 565 nM; in data set [2], above 42000 nM.
